Type in all cases: biochemical
In one test the target is JAK3 (Homo sapiens (Human), UniProt P52333). Put plainly: JAK3 Inhibition Assay (Example D, Omnia kinase fluorescence peptide substrate assay). The essentials: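 Mixture held 2 nM JAK3, 1 mM ATP and 10 μM Omnia Y7 peptide in 25 mM HEPES pH 7.4, 10 mM MgCl2, 0.01% Triton X-100, 1 mM DTT, 2% DMSO final. Sox fluorescence (ex 360/em 485 nm) was read every 50 s for 45 min. IC50 came from a 4-parameter logistic fit of percent of control.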

Another test addresses Human Tyk2 kinase domain (Homo sapiens (Human), UniProt P29597). Put plainly: Tyk2 Inhibition Assay (Example A, Omnia kinase fluorescence peptide substrate assay). To be noted: TYK2 Enzyme IC50 1 mM ATP, averaged IC50 ranges. The essentials: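 Omnia Sox-peptide kinetic fluorescence assay (ex 360/em 485 nm, read every 50 s for 45 min) with 1 nM human Tyk2 kinase domain (aa 886–1187, His tag cleaved, baculovirus-expressed), 1 mM ATP, 8 μM Omnia Y12 peptide, in 25 mM HEPES pH 7.4, 10 mM MgCl2, 0.01% Triton X-100, 1 mM DTT, 2% DMSO. IC50 from 4-parameter logistic fit of percent of control.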

The next test concerns the target JAK2 (Homo sapiens (Human), UniProt O60674). Put plainly: JAK2 Inhibition Assay (Example C, Omnia kinase fluorescence peptide substrate assay). To be noted: JAK2 Enzyme IC50 1 mM ATP, averaged IC50 ranges. The source says: The assays described in Examples A, B, C and D for the determination of Tyk2, JAK1, JAK2 and JAK3 kinase activity, respectively, utilized the Omnia® Kinase fluorescence peptide substrate-based technology (Invitrogen). The specific components of the assay mixture are described in Examples A, B, C and D. In these assays, Mg^2+ is chelated upon phosphorylation of the Omnia peptide by the kinase to form a bridge between the chelation-enhanced fluorophore Sox and the phosphate, resulting in an increase in fluorescence emission at 485 nm when excited at […]. The reactions were therefore read at excitation 360 nm and emission was measured at 485 nm every 50 seconds for 45 minutes using a PerkinElmer EnVision Multilabel Plate Reader.
The final buffer conditions for Tyk2, JAK1, JAK2, and JAK3 assays were as follows: 25 mM HEPES, pH 7.4, 10 mM MgCl2, 0.01% Triton X-100 and 1 mM DTT.
Two-μL aliquots of these were transferred to a fresh plate for a ten-fold intermediate dilution with assay buffer. Five-μL aliquots of the diluted compounds were then transferred to 20-μL of assay mixtures described in Examples A, B, C and D for a final concentration of DMSO of 2%. […] For each plate, percent of control (POC) values were calculated for each well according to the following equation: […]
IC50's were estimated from the POC's using a standard 4-parameter logistic model:
The IC50 is defined as the concentration of inhibitor at which the POC equals 50 for the fitted curve.
Compounds of Formula I were screened for their ability to inhibit JAK2 using the general enzyme inhibition assay method, in which the assay mixture contained 1 mM ATP, 10 μM Omnia® Y7 peptide (Catalog # IVGN KNZ3071C, Invitrogen Corporation, Carlsbad, Calif.) and 4 nM JAK2 in a total volume of 25 μL. JAK2 was purchased from Invitrogen Corporation, Carlsbad, Calif. (catalog # IVGN PV4288).

The target in another test is JAK1 (Homo sapiens (Human), UniProt P23458). Put plainly: JAK1 Inhibition Assay (Example B, Omnia kinase fluorescence peptide substrate assay). Put shortly:
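Recombinant human JAK1 (12.5 nM) with 1 mM ATP and 8 μM Omnia Y12 Sox-peptide in 25 mM HEPES pH 7.4, 10 mM MgCl2, 0.01% Triton X-100, 1 mM DTT, 2% DMSO final. Phosphorylation read kinetically (ex 360/em 485 nm, 45 min); IC50 from 4-parameter fit of percent of control.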

The mark [1] stands for this setting: JAK1 Enzyme IC50 1 mM ATP, 1 mM ATP, averaged IC50 ranges.

This is an account of results in patent publication US10189845B2, “4,6-substituted-pyrazolo[1,5-a]pyrazines as janus kinase inhibitors” (ARRAY BIOPHARMA INC., priority 2014, dated 2019).

SMILES strings stand for the structures. Structures can show the parent of a compound that is named as a salt. Where two headings read alike, the source gives them in different places.

Sequence of JAK3 (P52333 whole entry): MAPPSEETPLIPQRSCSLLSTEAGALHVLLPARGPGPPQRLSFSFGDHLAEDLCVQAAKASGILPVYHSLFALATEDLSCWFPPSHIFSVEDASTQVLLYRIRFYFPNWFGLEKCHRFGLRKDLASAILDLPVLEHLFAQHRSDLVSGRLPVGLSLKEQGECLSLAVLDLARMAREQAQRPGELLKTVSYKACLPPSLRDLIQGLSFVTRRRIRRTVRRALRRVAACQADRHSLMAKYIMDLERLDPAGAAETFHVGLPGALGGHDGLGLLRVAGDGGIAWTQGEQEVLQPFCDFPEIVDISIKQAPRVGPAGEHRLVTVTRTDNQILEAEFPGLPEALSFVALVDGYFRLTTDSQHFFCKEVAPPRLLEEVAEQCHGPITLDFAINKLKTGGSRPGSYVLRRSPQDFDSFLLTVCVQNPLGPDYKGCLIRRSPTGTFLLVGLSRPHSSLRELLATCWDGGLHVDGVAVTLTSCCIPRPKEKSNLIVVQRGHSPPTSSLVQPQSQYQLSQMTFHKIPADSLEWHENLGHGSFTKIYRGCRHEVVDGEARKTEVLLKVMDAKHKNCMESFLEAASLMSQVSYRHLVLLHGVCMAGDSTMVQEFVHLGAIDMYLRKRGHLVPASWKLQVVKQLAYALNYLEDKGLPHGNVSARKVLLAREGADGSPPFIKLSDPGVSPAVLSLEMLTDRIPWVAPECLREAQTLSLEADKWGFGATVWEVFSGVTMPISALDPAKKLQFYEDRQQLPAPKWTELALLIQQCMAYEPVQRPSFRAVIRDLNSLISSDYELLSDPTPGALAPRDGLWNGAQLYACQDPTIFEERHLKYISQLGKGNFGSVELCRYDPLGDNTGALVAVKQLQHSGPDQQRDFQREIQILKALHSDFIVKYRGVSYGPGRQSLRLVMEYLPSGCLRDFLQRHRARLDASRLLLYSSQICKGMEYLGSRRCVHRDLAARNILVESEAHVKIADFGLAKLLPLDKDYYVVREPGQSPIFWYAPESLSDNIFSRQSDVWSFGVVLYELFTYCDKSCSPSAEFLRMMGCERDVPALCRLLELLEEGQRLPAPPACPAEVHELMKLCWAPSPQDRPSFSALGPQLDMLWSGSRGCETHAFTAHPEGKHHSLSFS
Sequence of JAK1 (P23458 whole entry): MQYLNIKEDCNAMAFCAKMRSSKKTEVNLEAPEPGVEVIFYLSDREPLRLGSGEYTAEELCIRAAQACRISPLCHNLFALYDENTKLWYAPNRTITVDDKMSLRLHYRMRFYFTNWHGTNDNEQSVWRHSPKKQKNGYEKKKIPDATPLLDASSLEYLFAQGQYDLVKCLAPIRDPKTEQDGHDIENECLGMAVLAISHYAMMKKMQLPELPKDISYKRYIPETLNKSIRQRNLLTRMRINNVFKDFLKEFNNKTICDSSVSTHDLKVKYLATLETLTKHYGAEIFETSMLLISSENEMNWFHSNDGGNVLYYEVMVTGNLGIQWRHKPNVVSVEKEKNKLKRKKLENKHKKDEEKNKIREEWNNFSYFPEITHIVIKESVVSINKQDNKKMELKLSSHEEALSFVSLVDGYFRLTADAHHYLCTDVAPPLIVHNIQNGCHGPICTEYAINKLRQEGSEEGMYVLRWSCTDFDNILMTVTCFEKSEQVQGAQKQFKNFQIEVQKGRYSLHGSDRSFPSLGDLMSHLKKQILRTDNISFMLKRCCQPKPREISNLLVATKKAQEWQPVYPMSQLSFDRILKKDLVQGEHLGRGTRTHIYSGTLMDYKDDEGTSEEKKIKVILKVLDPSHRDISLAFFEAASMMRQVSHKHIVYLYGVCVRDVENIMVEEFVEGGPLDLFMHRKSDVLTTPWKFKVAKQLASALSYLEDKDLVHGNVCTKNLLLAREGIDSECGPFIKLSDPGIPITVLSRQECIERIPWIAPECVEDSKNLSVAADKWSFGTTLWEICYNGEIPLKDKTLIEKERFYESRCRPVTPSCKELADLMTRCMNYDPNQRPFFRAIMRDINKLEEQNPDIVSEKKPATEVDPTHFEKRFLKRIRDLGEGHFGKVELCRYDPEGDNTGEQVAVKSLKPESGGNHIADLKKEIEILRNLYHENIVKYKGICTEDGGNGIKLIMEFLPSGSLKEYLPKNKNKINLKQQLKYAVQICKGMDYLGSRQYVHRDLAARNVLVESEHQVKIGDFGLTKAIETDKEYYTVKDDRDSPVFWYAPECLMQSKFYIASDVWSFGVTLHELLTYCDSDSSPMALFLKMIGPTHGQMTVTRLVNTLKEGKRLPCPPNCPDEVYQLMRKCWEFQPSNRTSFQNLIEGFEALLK
Sequence of JAK2 (O60674 whole entry): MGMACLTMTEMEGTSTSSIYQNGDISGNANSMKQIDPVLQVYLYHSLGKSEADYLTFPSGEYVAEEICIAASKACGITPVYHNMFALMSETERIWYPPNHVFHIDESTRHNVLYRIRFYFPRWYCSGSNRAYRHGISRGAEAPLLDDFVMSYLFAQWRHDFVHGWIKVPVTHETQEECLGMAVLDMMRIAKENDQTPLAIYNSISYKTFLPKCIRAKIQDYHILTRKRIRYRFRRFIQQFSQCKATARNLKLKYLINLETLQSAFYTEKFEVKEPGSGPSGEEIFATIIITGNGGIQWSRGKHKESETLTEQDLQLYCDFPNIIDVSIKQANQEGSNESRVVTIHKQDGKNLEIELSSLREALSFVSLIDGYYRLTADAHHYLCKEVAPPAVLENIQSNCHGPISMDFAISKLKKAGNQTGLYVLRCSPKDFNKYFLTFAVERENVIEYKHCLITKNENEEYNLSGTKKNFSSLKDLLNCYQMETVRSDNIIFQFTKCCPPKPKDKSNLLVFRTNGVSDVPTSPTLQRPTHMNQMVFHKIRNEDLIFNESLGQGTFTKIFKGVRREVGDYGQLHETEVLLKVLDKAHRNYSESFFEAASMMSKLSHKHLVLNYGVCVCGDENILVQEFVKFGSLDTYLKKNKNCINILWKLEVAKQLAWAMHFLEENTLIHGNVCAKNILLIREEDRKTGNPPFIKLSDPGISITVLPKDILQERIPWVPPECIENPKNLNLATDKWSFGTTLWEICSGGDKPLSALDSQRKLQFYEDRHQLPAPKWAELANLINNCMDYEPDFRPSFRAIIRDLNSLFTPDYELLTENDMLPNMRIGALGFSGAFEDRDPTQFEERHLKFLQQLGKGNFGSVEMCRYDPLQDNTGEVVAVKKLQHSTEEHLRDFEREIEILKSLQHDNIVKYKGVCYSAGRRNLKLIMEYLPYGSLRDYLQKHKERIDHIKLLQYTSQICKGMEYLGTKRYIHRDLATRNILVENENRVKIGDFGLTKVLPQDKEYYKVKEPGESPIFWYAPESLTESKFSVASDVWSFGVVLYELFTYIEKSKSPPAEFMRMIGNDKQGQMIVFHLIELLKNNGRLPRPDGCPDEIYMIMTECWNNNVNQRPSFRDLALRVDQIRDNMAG
Sequence of Human Tyk2 kinase domain (P29597 886-1187): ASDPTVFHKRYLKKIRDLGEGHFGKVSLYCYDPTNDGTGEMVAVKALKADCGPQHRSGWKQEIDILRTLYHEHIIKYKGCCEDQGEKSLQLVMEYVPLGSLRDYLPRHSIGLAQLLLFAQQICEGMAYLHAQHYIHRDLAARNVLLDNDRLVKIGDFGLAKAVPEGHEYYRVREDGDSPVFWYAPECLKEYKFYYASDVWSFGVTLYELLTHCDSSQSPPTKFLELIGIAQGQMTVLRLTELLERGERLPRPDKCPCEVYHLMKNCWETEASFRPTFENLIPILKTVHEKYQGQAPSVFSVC

In the case of `CCC(CC)n1cc(-c2nc(-c3cnn(CCN(C)C)c3)cn3nccc23)cn1` [Example 10, N,N-dimethyl-2-(4-(4-(1-(pentan-3-yl)-1H-pyrazol-4-yl)pyrazolo[1,5-a]pyrazin-6-yl)-1H-pyrazol-1-yl)ethanamine], the IC50 against JAK3 is 1000 to 10000 nM; on Human Tyk2 kinase domain it was 10 to 100 nM; against JAK2 it was 10 to 100 nM; at JAK1 it was 1000 to 10000 nM.

Take `CCC(CC)n1cc(-c2nc(-c3cnn(CC4CCS(=O)(=O)CC4)c3)cn3nccc23)cn1` [Example 11, 4-((4-(4-(1-(pentan-3-yl)-1H-pyrazol-4-yl)pyrazolo[1,5-a]pyrazin-6-yl)-1H-pyrazol-1-yl)methyl)tetrahydro-2H-thiopyran 1,1-dioxide]: the IC50 was 1000 to 10000 nM on JAK3, 10 to 100 nM against Human Tyk2 kinase domain, 10 to 100 nM against JAK2 and 1000 to 10000 nM against JAK1.

For the molecule `CCC(CC)n1cc(-c2nc(-c3cnn(CCCN(C)C)c3)cn3nccc23)cn1` [Example 12, N,N-dimethyl-3-(4-(4-(1-(pentan-3-yl)-1H-pyrazol-4-yl)pyrazolo[1,5-a]pyrazin-6-yl)-1H-pyrazol-1-yl)propan-1-amine], the IC50 against JAK3 was 1000 to 10000 nM; against Human Tyk2 kinase domain, 100 to 1000 nM; against JAK2, 100 to 1000 nM; against JAK1 it was 1000 to 10000 nM.

For the molecule `CCC(CC)n1cc(-c2nc(-c3cnn(C[C@@H](C)CO)c3)cn3nccc23)cn1` [Example 14, (R)-2-methyl-3-(4-(4-(1-(pentan-3-yl)-1H-pyrazol-4-yl)pyrazolo[1,5-a]pyrazin-6-yl)-1H-pyrazol-1-yl)propan-1-ol], the IC50 was 1000 to 10000 nM against JAK3, 10 to 100 nM against Human Tyk2 kinase domain, 10 to 100 nM against JAK2 and 10 to 100 nM at JAK1 (setting [1]).

For the molecule `CCC(CC)n1cc(-c2nc(-c3cnn(C[C@H](C)CO)c3)cn3nccc23)cn1` [Example 15, (S)-2-methyl-3-(4-(4-(1-(pentan-3-yl)-1H-pyrazol-4-yl)pyrazolo[1,5-a]pyrazin-6-yl)-1H-pyrazol-1-yl)propan-1-ol], the IC50 on JAK3 is 1000 to 10000 nM; at Human Tyk2 kinase domain, 10 to 100 nM; on JAK2, 10 to 100 nM; against JAK1 (setting [1]), 10 to 100 nM.

For `CCC(CC)n1cc(-c2nc(-c3cnn(CC4(CO)COC4)c3)cn3nccc23)cn1` [Example 16, (3-((4-(4-(1-(pentan-3-yl)-1H-pyrazol-4-yl)pyrazolo[1,5-a]pyrazin-6-yl)-1H-pyrazol-1-yl)methyl)oxetan-3-yl)methanol], the IC50 against JAK3 is 1000 to 10000 nM; against Human Tyk2 kinase domain it was 10 to 100 nM; at JAK2 it was 10 to 100 nM; against JAK1, 10 to 100 nM.

Turning to `CCC(CC)n1cc(-c2nc(-c3cnn(C[C@@H]4CCC(=O)N4)c3)cn3nccc23)cn1` [Example 17, (S)-5-((4-(4-(1-(pentan-3-yl)-1H-pyrazol-4-yl)pyrazolo[1,5-a]pyrazin-6-yl)-1H-pyrazol-1-yl)methyl)pyrrolidin-2-one], the IC50 is 1000 to 10000 nM against JAK3, 10 to 100 nM on Human Tyk2 kinase domain, 10 to 100 nM against JAK2 and 100 to 1000 nM at JAK1.

Take `CCC(CC)n1cc(-c2nc(-c3cnn(C[C@H]4CCC(=O)N4)c3)cn3nccc23)cn1` [Example 18, (R)-5-((4-(4-(1-(pentan-3-yl)-1H-pyrazol-4-yl)pyrazolo[1,5-a]pyrazin-6-yl)-1H-pyrazol-1-yl)methyl)pyrrolidin-2-one]: the IC50 fell in the range of 1000 to 10000 nM on JAK3, 10 to 100 nM against Human Tyk2 kinase domain, 10 to 100 nM against JAK2 and 10 to 100 nM at JAK1.

Regarding `CCC(CC)n1cc(-c2nc(-c3cnn(CCCO)c3)cn3nccc23)cn1` [Example 19, 3-(4-(4-(1-(pentan-3-yl)-1H-pyrazol-4-yl)pyrazolo[1,5-a]pyrazin-6-yl)-1H-pyrazol-1-yl)propan-1-ol], the IC50 against JAK3, at Human Tyk2 kinase domain, on JAK2 and against JAK1 was 1000 to 10000 nM throughout.

In the case of `CCC(CC)n1cc(-c2nc(-c3cnn(CCO)c3)cn3nccc23)cn1` [Example 20, 2-(4-(4-(l-(pentan-3-yl)-1H-pyrazol-4-yl)pyrazolo[1,5-a]pyrazin-6-yl)-1H-pyrazol-1-yl)ethanol], the concentration for half-maximal inhibition (IC50) was 1000 to 10000 nM against JAK3, 10 to 100 nM on Human Tyk2 kinase domain, 10 to 100 nM against JAK2 and 10 to 100 nM on JAK1.

`CC[C@@H](C)n1cc(-c2nc(-c3cnn(C4CCS(=O)(=O)CC4)c3)cn3nccc23)cn1` [Example 21, (R)-4-(4-(4-(1-(sec-butyl)-1H-pyrazol-4-yl)pyrazolo[1,5-a]pyrazin-6-yl)-1H-pyrazol-1-yl)tetrahydro-2H-thiopyran 1,1-dioxide]: the IC50 lay within 1000 to 10000 nM against JAK3, 100 to 1000 nM at Human Tyk2 kinase domain, 10 to 100 nM at JAK2 and 1000 to 10000 nM on JAK1.

As for `CCC(CC)n1cc(-c2nc(-c3cnn(CCS(C)(=O)=O)c3)cn3nccc23)cn1` [Example 22, 6-(1-(2-(methylsulfonyl)ethyl)-1H-pyrazol-4-yl)-4-(1-(pentan-3-yl)-1H-pyrazol-4-yl)pyrazolo[1,5-a]pyrazine], the IC50 at JAK3 lay in the range of 1000 to 10000 nM; on Human Tyk2 kinase domain, 10 to 100 nM; against JAK2, 10 to 100 nM; against JAK1 it was 100 to 1000 nM.

For the molecule `CCC(CC)n1cc(-c2nc(-c3cnn(CCS(=O)(=O)N(C)C)c3)cn3nccc23)cn1` [Example 23, N,N-dimethyl-2-(4-(4-(1-(pentan-3-yl)-1H-pyrazol-4-yl)pyrazolo[1,5-a]pyrazin-6-yl)-1H-pyrazol-1-yl)ethanesulfonamide], the IC50 against JAK3 lay in the range of 1000 to 10000 nM; against Human Tyk2 kinase domain, 10 to 100 nM; against JAK2 it was 10 to 100 nM; against JAK1, 100 to 1000 nM.

With `CCC(CC)n1cc(-c2nc(-c3cnn(C4CCNCC4)c3)cn3nccc23)cn1` [Example 25, 4-(1-(pentan-3-yl)-1H-pyrazol-4-yl)-6-(1-(piperidin-4-yl)-1H-pyrazol-4-yl)pyrazolo[1,5a]pyrazine hydrochloride], the IC50 against JAK3 was 1000 to 10000 nM; at Human Tyk2 kinase domain, 10 to 100 nM; against JAK2 it was 10 to 100 nM; against JAK1 it was 100 to 1000 nM.

`CC(C)n1cc(-c2nc(-c3cnn(C4CCNCC4)c3)cn3nccc23)cn1` [Example 26, 4-(1-isopropyl-1H-pyrazol-4-yl)-6-(1-(piperidin-4-yl)-1H-pyrazol-4-yl)pyrazolo[1,5 a]pyrazine]: the IC50 lay in the range of 1000 to 10000 nM against JAK3, 100 to 1000 nM at Human Tyk2 kinase domain, 100 to 1000 nM against JAK2 and 1000 to 10000 nM at JAK1.

Turning to `CCC(CC)n1cc(-c2nc(-c3cnn([C@@H]4CCCNC4)c3)cn3nccc23)cn1` [Example 29, (R)-4-(1-(pentan-3-yl)-1H-pyrazol-4-yl)-6-(1-(piperidin-3-yl)-1H-pyrazol-4-yl)pyrazolo[1,5-a]pyrazine], the concentration for half-maximal inhibition (IC50) against JAK3 fell in the range of 1000 to 10000 nM; at Human Tyk2 kinase domain it was 10 to 100 nM; against JAK2 it was 10 to 100 nM; against JAK1 it was 100 to 1000 nM.

On to `CCC(CC)n1cc(-c2nc(-c3cnn(C[C@H]4COCCN4)c3)cn3nccc23)cn1` [Example 30, (S)-3-((4-(4-(1-(pentan-3-yl)-1H-pyrazol-4-yl)pyrazolo[1,5-a]pyrazin-6-yl)-1H-pyrazol-1-yl)methyl)morpholine], for which the IC50 lay in the range of 1000 to 10000 nM at JAK3, 10 to 100 nM on Human Tyk2 kinase domain, 10 to 100 nM against JAK2 and 100 to 1000 nM against JAK1.

In the case of `CCC(CC)n1cc(-c2nc(-c3cnn(C4CCN(C(=O)N(C)C)CC4)c3)cn3nccc23)cn1` [Example 35, N,N-dimethyl-4-(4-(4-(1-(pentan-3-yl)-1H-pyrazol-4-yl)pyrazolo[1,5-a]pyrazin-6-yl)-1H-pyrazol-1-yl)piperidine-1-carboxamide], the IC50 on JAK3 fell in the range of 1000 to 10000 nM; on Human Tyk2 kinase domain, 10 to 100 nM; at JAK2, 10 to 100 nM; against JAK1, 100 to 1000 nM.

For orientation: IC50 means the concentration at which inhibition is half-maximal.
